Experimental data reported in patent US20250280696A1, “FORMULATIONS AND USES THEREOF IN OPTOELECTRONIC FIELD” (Zhejiang Brilliant Optoelectronic Technology Co.,Ltd., priority 2022, published 2025).

Experiments:
Assay type in all cases: physicochemical
[1] = Absorption spectrum, emission spectrum and extinction coefficient in toluene solution; conditions: for Molar extinction coefficient of the toluene solution: at maximum absorption peak
Description: The extinction coefficients of the compounds and their absorption and emission spectrums in the solution were determined as follows: • 1. The compound with a certain amount of substance concentration in the toluene was prepared in a volumetric flask. • 2. The absorption spectrum of the solution was measured by using an ultraviolet-visible spectrophotometer (Puxi T9s) to obtain the absorption peak wavelength. • 3. The absorbance of the maximum absorption peak divided by the amount of substance concentration is the molar extinction coefficient of the compound. • 4. The emission spectrum of the solution was measured by using a fluorescent spectroscope (Hitachi, F-4700 FL Spectrophotometer) to obtain the emission peak wavelength.
(§1) The extinction coefficients of the compounds and their absorption and emission peaks in the solution and film are shown in Table 3.

[2] = Solubility of compounds in toluene; conditions: per 100 g toluene
Description: The solubility of the compounds in the toluene were determined as follows: • 1. 1000 mg toluene was placed in the transparent glass sample bottle. • 2. A certain mass of the compound was added into the toluene, and oscillated until completely dissolved. • 3. After the compound was completely dissolved, a certain mass of the compound was further added into the toluene, and oscillated. • 4. The above steps were repeated until the compound wasn't dissolved any more. • 5. The total mass of the compound added was recorded and the solubility was obtained by calculation.

[3] = UV stability of compounds in toluene (absorbance decay, t80); conditions: UV LEDs 365 nm & 255 nm, 12 cm, time until absorbance decayed to 80% of initial value
Description: The UV stability of the compounds were tested as follows:
The compound was dissolved in the toluene with a concentration of 1×10^5 mol/L. 3 mL solution was added to the cuvette with a lid and the lid was screwed on tightly, then the cuvette was placed in the ultraviolet-visible spectrophotometer to test the absorption spectrum, the absorbance of the maximum absorption peak was recorded as the initial value. The cuvette was placed at a distance of 12 cm from the UV LEDs (365 nm & 255 nm), irradiated for a period and tested its absorption spectrum, then continued to be irradiated after the test, and repeated until the absorbance decayed to 80% of its initial value, the time was recorded as t80.

[4] = Absorption and emission spectrum in spin-coated film; conditions: for Red shift of the spectrum in the film relative to the solution: film vs toluene solution
Description: The Absorption and emission spectrums of the compounds in the film were determined as follows: • 1. The compound with a certain concentration in the toluene was prepared. • 2. The prepared toluene solution was dropped onto a clean glass substrate. • 3. Spin-coating, and then heating at the 80° C. for 1 min. • 4. The absorption spectrum of the film was measured by using an ultraviolet-visible spectrophotometer (Puxi T9s) to obtain the absorption peak wavelength. • 5. The emission spectrum of the film was measured by using a fluorescent spectroscope (Hitachi, F-4700 FL Spectrophotometer) to obtain the emission peak wavelength.
as §1

Row | Compound | Absorption peak of the toluene solution [1] [nm] | Emission peak of the toluene solution [1] [nm] | Molar extinction coefficient of the toluene solution [1] [L/mol] | Solubilities(/100 g toluene) [2] [g] | Times t80 [3] [min] | Red shift of the spectrum in the film relative to the solution [4] | Absorption peak of the film ([4]; spin-coated film on glass) [nm] | Emission peak of the film ([4]; spin-coated film on glass) [nm]
1 | c1ccc(N(c2ccccc2)c2cc(N(c3ccccc3)c3ccccc3)c3ccc4c(N(c5ccccc5)c5ccccc5)cc(N(c5ccccc5)c5ccccc5)c5ccc2c3c54)cc1 [Compound 20] | 465 | 488 | 23000 | >1.5 | 188 | large red shift | 482 | 561
2 | CCCCCCCCc1ccc(-c2cc(C(C)C)ccc2N(c2cc(F)c(F)c(F)c2)c2cc(N(c3cc(F)c(F)c(F)c3)c3ccc(C(C)C)cc3-c3ccc(CCCCCCCC)cc3)c3ccc4c(N(c5cc(F)c(F)c(F)c5)c5ccc(C(C)C)cc5-c5ccc(CCCCCCCC)cc5)cc(N(c5cc(F)c(F)c(F)c5)c5ccc(C(C)C)cc5-c5ccc(CCCCCCCC)cc5)c5ccc2c3c54)cc1 [Compound 22] |  |  | 59000 | >15 | 377 | very small red shift |  | 490
3 | CC1CCC(C(C)C)C(Oc2ccc(-c3cc(C(C)C)ccc3N(c3cc(F)c(F)c(F)c3)c3cc(N(c4cc(F)c(F)c(F)c4)c4ccc(C(C)C)cc4-c4ccc(OC5CC(C)CCC5C(C)C)cc4)c4ccc5c(N(c6cc(F)c(F)c(F)c6)c6ccc(C(C)C)cc6-c6ccc(OC7CC(C)CCC7C(C)C)cc6)cc(N(c6cc(F)c(F)c(F)c6)c6ccc(C(C)C)cc6-c6ccc(OC7CC(C)CCC7C(C)C)cc6)c6ccc3c4c65)cc2)C1 (stereo not shown) [Compound 23] |  |  | 68000 | >10 | 405 | very small red shift |  | 
4 | CCCCCCCCc1ccc(-c2cc(OC)ccc2N(c2cc(F)c(F)c(F)c2)c2cc(N(c3cc(F)c(F)c(F)c3)c3ccc(OC)cc3-c3ccc(CCCCCCCC)cc3)c3ccc4c(N(c5cc(F)c(F)c(F)c5)c5ccc(OC)cc5-c5ccc(CCCCCCCC)cc5)cc(N(c5cc(F)c(F)c(F)c5)c5ccc(OC)cc5-c5ccc(CCCCCCCC)cc5)c5ccc2c3c54)cc1 [Compound 24] |  |  | 70000 | >10 | 352 | very small red shift |  | 
5 | CCCCCCCCc1ccc(N(c2ccc(C(C)C)cc2-c2cc(F)c(F)c(F)c2)c2cc(N(c3ccc(CCCCCCCC)cc3)c3ccc(C(C)C)cc3-c3cc(F)c(F)c(F)c3)c3ccc4c(N(c5ccc(CCCCCCCC)cc5)c5ccc(C(C)C)cc5-c5cc(F)c(F)c(F)c5)cc(N(c5ccc(CCCCCCCC)cc5)c5ccc(C(C)C)cc5-c5cc(F)c(F)c(F)c5)c5ccc2c3c54)cc1 [Compound 26] |  |  | 55000 | >10 | 486 | very small red shift |  | 
